Test: xn = mol fraction of the nth substance listed
Details: 308.15 K, 101 kPa, Liquid; for excess molar volume: Direct dilatometry; for speed of sound: Sing-around technique in a fixed-path interferometer

O=C1CCCN1 [2-pyrrolidinone] + OCCO
Details | excess molar volume [m3/mol] | speed of sound [m/s] | viscosity [mPa·s]
x2 = 0.0118 | 4e-09 | – | –
x2 = 0.0271 | 1.1e-08 | – | –
x2 = 0.0351 | – | 1600.6 | 8.955
x2 = 0.0551 | 2.1e-08 | – | –
x2 = 0.0613 | – | 1601.1 | 9.037
x2 = 0.0711 | 2.4e-08 | – | –
x2 = 0.0816 | – | 1601.4 | 9.118
x2 = 0.0891 | 3.3e-08 | – | –
x2 = 0.1123 | 3.6e-08 | – | –
x2 = 0.1155 | – | 1601.9 | 9.255
x2 = 0.1356 | 4.4e-08 | – | –
x2 = 0.1467 | 5e-08 | – | –
x2 = 0.1641 | – | 1602.4 | 9.302
x2 = 0.1671 | 5.6e-08 | – | –
x2 = 0.1927 | 6e-08 | – | –
x2 = 0.2134 | – | 1602.9 | 9.358
x2 = 0.2287 | 6.9e-08 | – | –
x2 = 0.2682 | 8.3e-08 | – | –
x2 = 0.3038 | 9.4e-08 | – | –
x2 = 0.3111 | – | 1604.5 | 9.487
x2 = 0.3336 | 1.01e-07 | – | –
x2 = 0.3866 | – | 1605.8 | 9.654
x2 = 0.4018 | 1.12e-07 | – | –
x2 = 0.4305 | 1.16e-07 | – | –
x2 = 0.4785 | 1.21e-07 | – | –
x2 = 0.4965 | 1.22e-07 | – | –
x2 = 0.5068 | – | 1607.7 | 9.833
x2 = 0.5172 | 1.22e-07 | – | –
x2 = 0.543 | 1.23e-07 | – | –
x2 = 0.5614 | 1.22e-07 | – | –
x2 = 0.6039 | – | 1610 | 9.963
x2 = 0.607 | 1.2e-07 | – | –
x2 = 0.623 | 1.19e-07 | – | –
x2 = 0.6414 | 1.17e-07 | – | –
x2 = 0.6694 | 1.15e-07 | – | –
x2 = 0.6896 | 1.11e-07 | – | –
x2 = 0.7046 | – | 1613.5 | 10.04
x2 = 0.7154 | 1.08e-07 | – | –
x2 = 0.7437 | 1.02e-07 | – | –
x2 = 0.7579 | 1e-07 | – | –
x2 = 0.7775 | 9.6e-08 | – | –
x2 = 0.8015 | – | 1617.8 | 10.29
x2 = 0.8278 | 8.7e-08 | – | –
x2 = 0.8424 | 8.4e-08 | – | –
x2 = 0.8495 | – | 1620.3 | 10.5
x2 = 0.8713 | 7.5e-08 | – | –
x2 = 0.8846 | 7e-08 | – | –
x2 = 0.8963 | 6.6e-08 | – | –
x2 = 0.8974 | – | 1624.1 | 10.75
x2 = 0.9107 | 5.9e-08 | – | –
x2 = 0.9233 | – | 1626 | 10.83
x2 = 0.9249 | 5.2e-08 | – | –
x2 = 0.9349 | 4.4e-08 | – | –
x2 = 0.9458 | – | 1627.7 | 11.05
x2 = 0.9544 | 3.6e-08 | – | –
x2 = 0.961 | 2.7e-08 | – | –
x2 = 0.9731 | – | 1631 | 11.14
x2 = 0.9747 | 1.8e-08 | – | –
x2 = 0.9869 | 1.2e-08 | – | –
x2 = 0.9976 | 4e-09 | – | –

Source: the NIST ThermoML archive (doi:10.1016/j.jct.2007.08.005)
